The text below walks through data of PMC6719014, “First-In-Class Inhibitors Targeting the Interaction between Bacterial RNA Polymerase and Sigma Initiation Factor Affect the Viability and Toxin Release of Streptococcus pneumoniae” (Molecules, 2019).

Molecules are shown by their SMILES.

The target of one test is T1, RNAP CH-σ (B. subtilis RpoC clamp-helix domain and full-length SigA) (Bacillus subtilis, UniProt P37871).
T1 construct: RpoC clamp-helix domain 220-315 with SmBiT NanoLuc tag (N-terminal, pCU252); full-length SigA with LgBiT NanoLuc tag (C-terminal, pCU251); purified recombinant; tags kept; with RNA polymerase sigma factor SigA
The test can be described thus: split-luciferase (NanoLuc) protein-protein interaction inhibition. The format is binding.
The IC50 is the point on the concentration scale where inhibition reaches its midpoint. The compound `Nc1ccccc1Sc1ccc(C(=O)c2ccccc2C(=O)O)cc1[N+](=O)[O-]` [C3-001, 2-(4-((2-Aminophenyl)thio)-3-nitrobenzoyl)benzoic Acid] yielded an IC50 of 6.4 ± 0.71 µM.

In the next test the target is T1, RNAP CH-σ (B. subtilis RpoC clamp-helix domain and full-length SigA). Described as above. The class given is biochemical. The source holds these as a separate data set. The text has this: split-luciferase (NanoLuc) protein-protein interaction inhibition on RNAP CH-σ (B. subtilis RpoC clamp-helix domain and full-length SigA)
As a reminder, the inhibition is the drop in the measured response relative to a control, in per cent. Low readings indicate a weak effect, high ones a strong effect. `Nc1ccccc1Sc1ccc(C(=O)c2ccccc2C(=O)O)cc1[N+](=O)[O-]` [C3-001, 2-(4-((2-Aminophenyl)thio)-3-nitrobenzoyl)benzoic Acid] gave an inhibition at 10 µM of 62.2 ± 2.6%.

`Nc1cccc(Sc2ccc(C(=O)c3ccccc3C(=O)O)cc2[N+](=O)[O-])c1` [C3-002, 2-(4-((3-Aminophenyl)thio)-3-nitrobenzoyl)benzoic Acid] registered an inhibition at 10 µM of 81.3 ± 4.9%.

As for `Nc1ccc(Sc2ccc(C(=O)c3ccccc3C(=O)O)cc2[N+](=O)[O-])cc1` [C3-003, 2-(4-((4-Aminophenyl)thio)-3-nitrobenzoyl)benzoic Acid], the inhibition at 10 µM worked out at 69.1 ± 10.7%.

Regarding `Nc1cc(Cl)ccc1Sc1ccc(C(=O)c2ccccc2C(=O)O)cc1[N+](=O)[O-]` [C3-004, 2-(4-((2-Amino-4-chlorophenyl)thio)-3-nitrobenzoyl)benzoic Acid], the inhibition at 10 µM turned out to be 60.5 ± 16.5%.

The compound `O=C(O)c1ccccc1C(=O)c1ccc(Sc2ccc(Cl)c(Cl)c2)c([N+](=O)[O-])c1` [C3-005, 2-(4-((3,4-Dichlorophenyl)thio)-3-nitrobenzoyl)benzoic Acid] returned an inhibition at 10 µM of 81.7 ± 0.9%.
